Assays:
Test in all cases: KINOMEscan competition binding
Settings in all cases: compound 10.0 µM
ABL1 (human) = ABL1 (human) (UniProt P00519)
ABL2 (human) = ABL2 (human) (UniProt P42684)
AKT2 (human) = AKT2 (human) (UniProt P31751)
CAMK2B (human) = CAMK2B (human) (UniProt Q13554)
CDK18 (human) = CDK18 (human) (UniProt Q07002)
CDK3 (human) = CDK3 (human) (UniProt Q00526)
CHEK1 (human) = CHEK1 (human) (UniProt O14757)
CSK (human) = CSK (human) (UniProt P41240)
[1] = tested on: EGFR (human), P00533 [A750P; 747-749 del]
[2] = tested on: EGFR (human), P00533 [L861Q]
EIF2AK2 (human) = EIF2AK2 (human) (UniProt P19525)
EPHA6 (human) = EPHA6 (human) (UniProt Q9UF33)
[3] = tested on: FGFR3 (human), P22607 [G697C]
FRK (human) = FRK (human) (UniProt P42685)
FYN (human) = FYN (human) (UniProt P06241)
Sequence of FYN (human) (P06241 whole entry, looked up): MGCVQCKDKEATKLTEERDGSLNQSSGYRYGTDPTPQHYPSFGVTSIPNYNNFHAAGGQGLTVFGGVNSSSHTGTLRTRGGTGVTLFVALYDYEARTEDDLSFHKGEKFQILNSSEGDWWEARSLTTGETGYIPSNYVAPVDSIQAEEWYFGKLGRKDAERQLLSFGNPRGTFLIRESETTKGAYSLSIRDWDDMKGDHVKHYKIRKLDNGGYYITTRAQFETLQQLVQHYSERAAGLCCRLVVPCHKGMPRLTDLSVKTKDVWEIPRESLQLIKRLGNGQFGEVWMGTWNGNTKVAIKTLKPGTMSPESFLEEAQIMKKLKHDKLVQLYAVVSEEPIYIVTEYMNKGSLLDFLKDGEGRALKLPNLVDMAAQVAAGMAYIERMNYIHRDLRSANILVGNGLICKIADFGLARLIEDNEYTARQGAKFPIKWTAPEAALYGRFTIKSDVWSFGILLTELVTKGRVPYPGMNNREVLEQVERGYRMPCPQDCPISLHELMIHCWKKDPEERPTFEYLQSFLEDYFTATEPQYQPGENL

HCK (human) = HCK (human) (UniProt P08631)
LTK (human) = LTK (human) (UniProt P29376)
MAP3K12 (human) = MAP3K12 (human) (UniProt Q12852)
MAP4K5 (human) = MAP4K5 (human) (UniProt Q9Y4K4)
MAPK14 (human) = MAPK14 (human) (UniProt Q16539)
Sequence of MAPK14 (human) (Q16539 whole entry, looked up): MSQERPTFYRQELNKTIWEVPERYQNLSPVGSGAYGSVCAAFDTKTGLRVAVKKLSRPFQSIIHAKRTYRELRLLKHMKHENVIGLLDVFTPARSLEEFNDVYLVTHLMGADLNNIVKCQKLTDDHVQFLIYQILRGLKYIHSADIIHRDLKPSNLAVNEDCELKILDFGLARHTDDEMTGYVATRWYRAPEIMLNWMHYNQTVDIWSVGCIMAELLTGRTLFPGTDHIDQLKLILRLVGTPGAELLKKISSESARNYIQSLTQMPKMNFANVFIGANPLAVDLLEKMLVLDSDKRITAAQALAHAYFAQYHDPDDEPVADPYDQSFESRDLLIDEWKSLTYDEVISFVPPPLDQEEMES

MAPK6 (human) = MAPK6 (human) (UniProt Q16659)
MAPK7 (human) = MAPK7 (human) (UniProt Q13164)
Sequence of MAPK7 (human) (Q13164 whole entry, looked up): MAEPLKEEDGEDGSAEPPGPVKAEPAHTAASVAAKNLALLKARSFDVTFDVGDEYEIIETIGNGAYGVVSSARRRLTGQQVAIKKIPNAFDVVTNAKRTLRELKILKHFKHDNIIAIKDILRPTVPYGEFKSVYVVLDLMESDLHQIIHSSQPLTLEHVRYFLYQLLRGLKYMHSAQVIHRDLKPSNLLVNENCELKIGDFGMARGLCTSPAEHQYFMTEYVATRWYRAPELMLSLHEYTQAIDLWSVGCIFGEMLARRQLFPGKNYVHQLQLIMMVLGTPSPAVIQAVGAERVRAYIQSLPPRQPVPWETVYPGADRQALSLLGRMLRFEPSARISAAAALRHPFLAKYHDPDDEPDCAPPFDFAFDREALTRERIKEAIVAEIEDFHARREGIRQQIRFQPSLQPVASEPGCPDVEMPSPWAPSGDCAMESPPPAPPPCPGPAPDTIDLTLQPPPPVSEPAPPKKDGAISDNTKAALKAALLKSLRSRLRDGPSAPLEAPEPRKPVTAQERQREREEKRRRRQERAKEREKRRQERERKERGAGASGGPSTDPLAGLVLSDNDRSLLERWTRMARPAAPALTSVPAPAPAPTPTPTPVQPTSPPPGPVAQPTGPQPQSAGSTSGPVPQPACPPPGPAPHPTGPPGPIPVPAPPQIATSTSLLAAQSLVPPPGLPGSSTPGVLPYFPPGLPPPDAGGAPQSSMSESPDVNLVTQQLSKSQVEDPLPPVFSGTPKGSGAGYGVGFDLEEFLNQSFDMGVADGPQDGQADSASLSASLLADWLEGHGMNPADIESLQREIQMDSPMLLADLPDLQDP

MARK1 (human) = MARK1 (human) (UniProt Q9P0L2)
NEK6 (human) = NEK6 (human) (UniProt Q9HC98)
NEK7 (human) = NEK7 (human) (UniProt Q8TDX7)
NTRK3 (human) = NTRK3 (human) (UniProt Q16288)
PAK2 (human) = PAK2 (human) (UniProt Q13177)
PIK3CD (human) = PIK3CD (human) (UniProt O00329)
PLK3 (human) = PLK3 (human) (UniProt Q9H4B4)
PRKG2 (human) = PRKG2 (human) (UniProt Q13237)
[4] = tested on: RET (human), P07949 [M918T]
Sequence of RET (human), P07949 [M918T] (P07949 whole entry M918T, looked up): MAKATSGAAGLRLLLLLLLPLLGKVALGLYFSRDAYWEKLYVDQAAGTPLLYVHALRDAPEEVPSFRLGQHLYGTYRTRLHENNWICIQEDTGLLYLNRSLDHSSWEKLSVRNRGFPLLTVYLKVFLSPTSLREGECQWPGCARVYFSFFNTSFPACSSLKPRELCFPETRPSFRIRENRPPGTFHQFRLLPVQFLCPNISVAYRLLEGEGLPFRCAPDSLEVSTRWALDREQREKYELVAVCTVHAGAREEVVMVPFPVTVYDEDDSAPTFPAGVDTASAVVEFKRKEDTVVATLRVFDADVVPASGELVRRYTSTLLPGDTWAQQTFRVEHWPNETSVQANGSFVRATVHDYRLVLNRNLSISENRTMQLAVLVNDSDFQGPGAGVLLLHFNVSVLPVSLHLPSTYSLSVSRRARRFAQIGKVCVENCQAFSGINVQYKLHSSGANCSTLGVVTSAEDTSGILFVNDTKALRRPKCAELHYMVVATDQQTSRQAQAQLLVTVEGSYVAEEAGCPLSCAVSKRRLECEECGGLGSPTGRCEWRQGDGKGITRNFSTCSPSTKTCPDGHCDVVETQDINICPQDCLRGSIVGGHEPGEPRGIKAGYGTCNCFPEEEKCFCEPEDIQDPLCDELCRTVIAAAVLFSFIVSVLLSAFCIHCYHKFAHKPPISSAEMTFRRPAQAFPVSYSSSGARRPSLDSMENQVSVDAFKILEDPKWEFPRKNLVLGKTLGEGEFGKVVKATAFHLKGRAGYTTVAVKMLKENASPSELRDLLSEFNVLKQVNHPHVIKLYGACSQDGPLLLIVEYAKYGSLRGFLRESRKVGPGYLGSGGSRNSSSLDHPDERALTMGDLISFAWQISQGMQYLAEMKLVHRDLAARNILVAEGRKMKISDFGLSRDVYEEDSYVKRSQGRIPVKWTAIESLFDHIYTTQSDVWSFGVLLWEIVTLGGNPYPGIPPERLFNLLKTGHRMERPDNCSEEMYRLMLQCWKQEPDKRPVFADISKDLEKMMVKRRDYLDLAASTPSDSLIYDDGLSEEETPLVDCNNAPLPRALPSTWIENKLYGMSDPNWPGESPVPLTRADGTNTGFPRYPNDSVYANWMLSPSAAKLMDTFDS

[5] = tested on: RET (human), P07949 [V804L]
Sequence of RET (human), P07949 [V804L] (P07949 whole entry V804L, looked up): as the sequence (P07949 whole entry M918T, looked up) above, with V804L, T918M counted along it

RPS6KA2 KD1 (human) = RPS6KA2 KD1 (human) (UniProt Q15349)
RPS6KA4 KD1 (human) = RPS6KA4 KD1 (human) (UniProt O75676)
SLK (human) = SLK (human) (UniProt Q9H2G2)
Sequence of SLK (human) (Q9H2G2 whole entry, looked up): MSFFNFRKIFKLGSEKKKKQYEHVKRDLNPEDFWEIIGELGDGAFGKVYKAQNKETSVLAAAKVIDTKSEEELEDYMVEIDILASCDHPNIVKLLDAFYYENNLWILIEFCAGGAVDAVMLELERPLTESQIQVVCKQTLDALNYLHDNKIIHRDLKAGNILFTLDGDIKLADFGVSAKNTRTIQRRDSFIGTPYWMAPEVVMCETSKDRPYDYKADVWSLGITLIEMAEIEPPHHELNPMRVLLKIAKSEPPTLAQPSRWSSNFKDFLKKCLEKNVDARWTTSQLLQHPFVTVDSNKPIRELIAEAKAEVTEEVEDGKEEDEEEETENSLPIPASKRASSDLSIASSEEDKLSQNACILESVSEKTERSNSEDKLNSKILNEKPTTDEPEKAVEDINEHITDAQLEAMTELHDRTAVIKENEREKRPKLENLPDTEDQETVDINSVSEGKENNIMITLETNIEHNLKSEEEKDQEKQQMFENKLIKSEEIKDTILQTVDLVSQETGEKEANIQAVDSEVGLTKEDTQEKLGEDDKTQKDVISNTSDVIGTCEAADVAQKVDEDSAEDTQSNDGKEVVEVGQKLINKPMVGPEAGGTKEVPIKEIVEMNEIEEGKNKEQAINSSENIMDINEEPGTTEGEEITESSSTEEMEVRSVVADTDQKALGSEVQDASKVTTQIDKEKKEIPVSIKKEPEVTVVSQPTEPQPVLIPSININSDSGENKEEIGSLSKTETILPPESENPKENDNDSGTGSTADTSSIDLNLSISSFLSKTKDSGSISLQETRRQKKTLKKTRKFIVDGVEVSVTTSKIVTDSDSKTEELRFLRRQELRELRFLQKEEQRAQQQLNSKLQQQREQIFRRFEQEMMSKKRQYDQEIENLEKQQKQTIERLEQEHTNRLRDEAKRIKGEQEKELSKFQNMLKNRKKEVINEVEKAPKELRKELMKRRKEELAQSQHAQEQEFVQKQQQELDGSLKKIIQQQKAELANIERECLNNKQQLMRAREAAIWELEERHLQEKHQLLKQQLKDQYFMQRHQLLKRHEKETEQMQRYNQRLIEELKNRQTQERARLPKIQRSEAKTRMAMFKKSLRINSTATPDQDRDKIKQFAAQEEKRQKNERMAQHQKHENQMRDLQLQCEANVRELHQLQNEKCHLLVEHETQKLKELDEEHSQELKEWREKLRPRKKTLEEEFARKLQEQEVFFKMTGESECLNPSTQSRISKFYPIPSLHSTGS

SRC (human) = SRC (human) (UniProt P12931)
SRMS (human) = SRMS (human) (UniProt Q9H3Y6)
STK25 (human) = STK25 (human) (UniProt O00506)
STK35 (human) = STK35 (human) (UniProt Q8TDR2)
STK4 (human) = STK4 (human) (UniProt Q13043)
Sequence of STK4 (human) (Q13043 whole entry, looked up): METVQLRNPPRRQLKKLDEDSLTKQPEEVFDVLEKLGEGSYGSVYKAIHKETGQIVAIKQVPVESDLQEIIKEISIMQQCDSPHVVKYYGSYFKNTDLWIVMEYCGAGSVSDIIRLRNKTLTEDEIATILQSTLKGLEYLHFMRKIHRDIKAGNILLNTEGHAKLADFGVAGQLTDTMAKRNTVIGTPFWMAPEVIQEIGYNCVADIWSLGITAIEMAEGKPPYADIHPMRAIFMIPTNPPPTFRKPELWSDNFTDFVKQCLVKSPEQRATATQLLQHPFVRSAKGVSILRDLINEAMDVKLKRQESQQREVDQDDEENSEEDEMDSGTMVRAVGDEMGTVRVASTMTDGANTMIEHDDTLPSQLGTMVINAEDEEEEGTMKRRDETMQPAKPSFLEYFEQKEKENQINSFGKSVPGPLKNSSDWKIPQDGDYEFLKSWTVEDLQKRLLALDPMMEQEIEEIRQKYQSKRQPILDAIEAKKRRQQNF

[6] = target: TYK2 JH1 catalytic (human) (UniProt P29597)
ULK3 (human) = ULK3 (human) (UniProt Q6PHR2)

Sequence of CDK18 (human) (Q07002 whole entry, looked up): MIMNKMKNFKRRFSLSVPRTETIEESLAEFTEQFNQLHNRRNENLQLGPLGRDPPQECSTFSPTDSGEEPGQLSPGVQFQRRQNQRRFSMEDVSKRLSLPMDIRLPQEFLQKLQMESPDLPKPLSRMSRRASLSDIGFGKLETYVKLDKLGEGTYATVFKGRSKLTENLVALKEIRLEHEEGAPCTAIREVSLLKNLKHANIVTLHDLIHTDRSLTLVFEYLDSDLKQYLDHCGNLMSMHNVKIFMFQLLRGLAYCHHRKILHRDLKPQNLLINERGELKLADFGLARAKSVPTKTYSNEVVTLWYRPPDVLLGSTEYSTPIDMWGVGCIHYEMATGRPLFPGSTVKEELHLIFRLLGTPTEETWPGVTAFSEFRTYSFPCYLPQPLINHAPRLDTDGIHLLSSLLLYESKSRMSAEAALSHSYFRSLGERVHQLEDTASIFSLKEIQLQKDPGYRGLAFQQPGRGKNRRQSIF

COc1cc(N2CCN(C)CC2)ccc1Nc1ncc2c(n1)Nc1ccccc1NC2=O
kinase still bound, per cent of control (ABL1 (human)): 24%
kinase still bound, per cent of control (ABL2 (human)): 79%
kinase still bound, per cent of control (AKT2 (human)): 100%
kinase still bound, per cent of control (CAMK2B (human)): 98%
kinase still bound, per cent of control (CDK18 (human)): 86%
kinase still bound, per cent of control (CDK3 (human)): 85%
kinase still bound, per cent of control (CHEK1 (human)): 75%
kinase still bound, per cent of control (CSK (human)): 100%
kinase still bound, per cent of control [1]: 33%
kinase still bound, per cent of control [2]: 61%
kinase still bound, per cent of control (EIF2AK2 (human)): 59%
kinase still bound, per cent of control (EPHA6 (human)): 100%
kinase still bound, per cent of control [3]: 84%
kinase still bound, per cent of control (FRK (human)): 93%
kinase still bound, per cent of control (FYN (human)): 98%
kinase still bound, per cent of control (HCK (human)): 63%
kinase still bound, per cent of control (LTK (human)): 72%
kinase still bound, per cent of control (MAP3K12 (human)): 100%
kinase still bound, per cent of control (MAP4K5 (human)): 98%
kinase still bound, per cent of control (MAPK14 (human)): 100%
kinase still bound, per cent of control (MAPK6 (human)): 100%
kinase still bound, per cent of control (MAPK7 (human)): 100%
kinase still bound, per cent of control (MARK1 (human)): 100%
kinase still bound, per cent of control (NEK6 (human)): 99%
kinase still bound, per cent of control (NEK7 (human)): 70%
kinase still bound, per cent of control (NTRK3 (human)): 2.1%
kinase still bound, per cent of control (PAK2 (human)): 80%
kinase still bound, per cent of control (PIK3CD (human)): 100%
kinase still bound, per cent of control (PLK3 (human)): 83%
kinase still bound, per cent of control (PRKG2 (human)): 100%
kinase still bound, per cent of control [4]: 72%
kinase still bound, per cent of control [5]: 80%
kinase still bound, per cent of control (RPS6KA2 KD1 (human)): 61%
kinase still bound, per cent of control (RPS6KA4 KD1 (human)): 100%
kinase still bound, per cent of control (SLK (human)): 100%
kinase still bound, per cent of control (SRC (human)): 48%
kinase still bound, per cent of control (SRMS (human)): 0%
kinase still bound, per cent of control (STK25 (human)): 84%
kinase still bound, per cent of control (STK35 (human)): 100%
kinase still bound, per cent of control (STK4 (human)): 100%
kinase still bound, per cent of control [6]: 66%
kinase still bound, per cent of control (ULK3 (human)): 95%

COc1cc(N2CCN(C)CC2)ccc1Nc1ncc2c(n1)N(C)c1ccccc1N(C)C2=O
kinase still bound, per cent of control (ABL1 (human)): 100%
kinase still bound, per cent of control (ABL2 (human)): 98%
kinase still bound, per cent of control (AKT2 (human)): 100%
kinase still bound, per cent of control (CAMK2B (human)): 92%
kinase still bound, per cent of control (CDK18 (human)): 100%
kinase still bound, per cent of control (CDK3 (human)): 96%
kinase still bound, per cent of control (CHEK1 (human)): 100%
kinase still bound, per cent of control (CSK (human)): 95%
kinase still bound, per cent of control [1]: 49%
kinase still bound, per cent of control [2]: 85%
kinase still bound, per cent of control (EIF2AK2 (human)): 93%
kinase still bound, per cent of control (EPHA6 (human)): 100%
kinase still bound, per cent of control [3]: 100%
kinase still bound, per cent of control (FRK (human)): 51%
kinase still bound, per cent of control (FYN (human)): 100%
kinase still bound, per cent of control (HCK (human)): 96%
kinase still bound, per cent of control (LTK (human)): 26%
kinase still bound, per cent of control (MAP3K12 (human)): 100%
kinase still bound, per cent of control (MAP4K5 (human)): 91%
kinase still bound, per cent of control (MAPK14 (human)): 100%
kinase still bound, per cent of control (MAPK6 (human)): 100%
kinase still bound, per cent of control (MAPK7 (human)): 30%
kinase still bound, per cent of control (MARK1 (human)): 86%
kinase still bound, per cent of control (NEK6 (human)): 100%
kinase still bound, per cent of control (NEK7 (human)): 81%
kinase still bound, per cent of control (NTRK3 (human)): 79%
kinase still bound, per cent of control (PAK2 (human)): 94%
kinase still bound, per cent of control (PIK3CD (human)): 100%
kinase still bound, per cent of control (PLK3 (human)): 100%
kinase still bound, per cent of control (PRKG2 (human)): 99%
kinase still bound, per cent of control [4]: 100%
kinase still bound, per cent of control [5]: 100%
kinase still bound, per cent of control (RPS6KA2 KD1 (human)): 82%
kinase still bound, per cent of control (RPS6KA4 KD1 (human)): 100%
kinase still bound, per cent of control (SLK (human)): 100%
kinase still bound, per cent of control (SRC (human)): 88%
kinase still bound, per cent of control (SRMS (human)): 100%
kinase still bound, per cent of control (STK25 (human)): 89%
kinase still bound, per cent of control (STK35 (human)): 100%
kinase still bound, per cent of control (STK4 (human)): 100%
kinase still bound, per cent of control [6]: 94%
kinase still bound, per cent of control (ULK3 (human)): 100%

COc1cc(N2CCN(C)CC2)ccc1Nc1ncc2c(n1)N(C)c1sccc1C(=O)N2C
kinase still bound, per cent of control (ABL1 (human)): 79%
kinase still bound, per cent of control (ABL2 (human)): 92%
kinase still bound, per cent of control (AKT2 (human)): 96%
kinase still bound, per cent of control (CAMK2B (human)): 58%
kinase still bound, per cent of control (CDK18 (human)): 76%
kinase still bound, per cent of control (CDK3 (human)): 100%
kinase still bound, per cent of control (CHEK1 (human)): 60%
kinase still bound, per cent of control (CSK (human)): 88%
kinase still bound, per cent of control [1]: 70%
kinase still bound, per cent of control [2]: 46%
kinase still bound, per cent of control (EIF2AK2 (human)): 69%
kinase still bound, per cent of control (EPHA6 (human)): 97%
kinase still bound, per cent of control [3]: 83%
kinase still bound, per cent of control (FRK (human)): 13%
kinase still bound, per cent of control (FYN (human)): 86%
kinase still bound, per cent of control (HCK (human)): 100%
kinase still bound, per cent of control (LTK (human)): 83%
kinase still bound, per cent of control (MAP3K12 (human)): 86%
kinase still bound, per cent of control (MAP4K5 (human)): 99%
kinase still bound, per cent of control (MAPK14 (human)): 82%
kinase still bound, per cent of control (MAPK6 (human)): 61%
kinase still bound, per cent of control (MAPK7 (human)): 0.1%
kinase still bound, per cent of control (MARK1 (human)): 64%
kinase still bound, per cent of control (NEK6 (human)): 35%
kinase still bound, per cent of control (NEK7 (human)): 93%
kinase still bound, per cent of control (NTRK3 (human)): 68%
kinase still bound, per cent of control (PAK2 (human)): 71%
kinase still bound, per cent of control (PIK3CD (human)): 48%
kinase still bound, per cent of control (PLK3 (human)): 22%
kinase still bound, per cent of control (PRKG2 (human)): 84%
kinase still bound, per cent of control [4]: 96%
kinase still bound, per cent of control [5]: 89%
kinase still bound, per cent of control (RPS6KA2 KD1 (human)): 82%
kinase still bound, per cent of control (RPS6KA4 KD1 (human)): 100%
kinase still bound, per cent of control (SLK (human)): 87%
kinase still bound, per cent of control (SRC (human)): 97%
kinase still bound, per cent of control (SRMS (human)): 76%
kinase still bound, per cent of control (STK25 (human)): 80%
kinase still bound, per cent of control (STK35 (human)): 89%
kinase still bound, per cent of control (STK4 (human)): 100%
kinase still bound, per cent of control [6]: 62%
kinase still bound, per cent of control (ULK3 (human)): 100%

From the kinase profiling compilation of Christmann-Franck et al. (2016)
